From patent US20040234463A1, “Antimicrobial solution for both tropical and oral use” (Innovative Healthcare Products, Inc., priority 2002, published 2004)

Key:
Test in all cases: Titration of zones of inhibition of growth
Format in all cases: cell-based
Set-up in all cases: key: NI: No inhibition detected
Streptococcus sanguia = test system: Streptococcus sanguia
Procedure: (§1) The present invention was tested against a commercially available denture cleanser and a 3% solution of H2O2 to test its effectiveness to inhibit growth of ten various target microorganisms commonly found in the human mouth. Included among the microorganisms were candida albicans, staphylococcus aureus, streptococcus sanguia, and fusobacterium nucleatum. Three samples of each microorganism were prepared for introduction of one of the various treatments—either, the present invention, a commercially-available denture cleanser, or a 3% solution of H2O2. The table blow partailly summarizes the results in terms of the titration of zones (in millimeters) of inhibition of growth.

Staphylococcus aureus = test system: Staphylococcus aureus
Procedure: as §1

Fusobacterium nucleatum = test system: Fusobacterium nucleatum
Procedure: as §1

Candida albicans = test system: Candida albicans
Procedure: as §1

## OO [H2O2]
Streptococcus sanguia; dilution 1/16
  zone of inhibition of growth: NI
Streptococcus sanguia; dilution 1/32
  zone of inhibition of growth: NI
Streptococcus sanguia; dilution 1/64
  zone of inhibition of growth: NI
Streptococcus sanguia; dilution 1/128
  zone of inhibition of growth: NI
Streptococcus sanguia; dilution St.
  zone of inhibition of growth: 10.0 millimeters
Streptococcus sanguia; dilution ¼
  zone of inhibition of growth: NI
Streptococcus sanguia; dilution ½
  zone of inhibition of growth: 6.5 millimeters
Streptococcus sanguia; dilution ⅛
  zone of inhibition of growth: NI
Staphylococcus aureus; dilution 1/16
  zone of inhibition of growth: NI
Staphylococcus aureus; dilution 1/32
  zone of inhibition of growth: NI
Staphylococcus aureus; dilution 1/64
  zone of inhibition of growth: NI
Staphylococcus aureus; dilution 1/128
  zone of inhibition of growth: NI
Staphylococcus aureus; dilution St.
  zone of inhibition of growth: 10.0 millimeters
Staphylococcus aureus; dilution ¼
  zone of inhibition of growth: NI
Staphylococcus aureus; dilution ½
  zone of inhibition of growth: 5.0 millimeters
Staphylococcus aureus; dilution ⅛
  zone of inhibition of growth: NI
Fusobacterium nucleatum; dilution 1/16
  zone of inhibition of growth: NI
Fusobacterium nucleatum; dilution 1/32
  zone of inhibition of growth: NI
Fusobacterium nucleatum; dilution 1/64
  zone of inhibition of growth: NI
Fusobacterium nucleatum; dilution 1/128
  zone of inhibition of growth: NI
Fusobacterium nucleatum; dilution St.
  zone of inhibition of growth: 17.0 millimeters
Fusobacterium nucleatum; dilution ¼
  zone of inhibition of growth: 7.0 millimeters
Fusobacterium nucleatum; dilution ½
  zone of inhibition of growth: 13.0 millimeters
Fusobacterium nucleatum; dilution ⅛
  zone of inhibition of growth: 6.0 millimeters
Candida albicans; dilution 1/16
  zone of inhibition of growth: NI
Candida albicans; dilution 1/32
  zone of inhibition of growth: NI
Candida albicans; dilution 1/64
  zone of inhibition of growth: NI
Candida albicans; dilution 1/128
  zone of inhibition of growth: NI
Candida albicans; dilution St.
  zone of inhibition of growth: 5.5 millimeters
Candida albicans; dilution ¼
  zone of inhibition of growth: NI
Candida albicans; dilution ½
  zone of inhibition of growth: 5.0 millimeters
Candida albicans; dilution ⅛
  zone of inhibition of growth: NI
